Measurements: patent US20070003987A1, “Screening method for substance binding to merozoite surface protein-1/42” (priority 2003, published 2007)

Columns and labels:
P. vivax MSP133 = biological target: T1, P. vivax MSP133 (Plasmodium vivax, UniProt Q02569, A1444G/T1362K/T1451N); test: isothermal titration calorimetry; assay type: binding
T1 sequence (Q02569 1325-1618 T1362K/A1444G/T1451N): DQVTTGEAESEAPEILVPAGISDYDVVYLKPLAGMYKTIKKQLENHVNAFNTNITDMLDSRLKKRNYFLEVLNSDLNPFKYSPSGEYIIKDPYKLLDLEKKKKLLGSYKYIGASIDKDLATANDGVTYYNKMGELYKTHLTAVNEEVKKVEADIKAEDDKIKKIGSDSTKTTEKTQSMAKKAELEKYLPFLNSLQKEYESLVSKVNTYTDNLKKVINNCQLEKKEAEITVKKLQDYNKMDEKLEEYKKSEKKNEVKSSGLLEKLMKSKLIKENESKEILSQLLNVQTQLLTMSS
Description: P. vivax MSP133 was expressed using the P. vivax MSP142 clone, above, as a template for PCR, followed by ligation of the product into vector pET30Xa/LIC. The sequence runs from Asp 1325 to Ser 1618 (Accession number A39401) following the N-terminal purification tag. The vector was used to transform BL21(DE3)pLysS cells. For expression, a culture of the transformed cells was induced at an OD600 of 0.6-0.8 at 37° C. with 1 mM IPTG for 3 h. The cells were harvested by centrifugation and the cell pellet lysed using the Bugbuster protein extraction reagent (Novagen). The cell lysate was cleared by centrifugation and the supernatant loaded directly onto a Ni-NTA column. The column was washed with 10 volumes of 50 mM NaH2PO4, 300 mM NaCl, 10 mM imidazole, pH 8.0, then with 6 column volumes of the same buffer containing 30 mM imidazole, and finally eluted with 3 column volumes of the buffer with 250 mM imidazole. The eluted protein was then loaded directly onto a Superdex 200 (26/600) column (Amersham) equilibrated in 20 mM Tris-HCl, 250 mM NaCl, pH 8.0 and purified by gel filtration. The fractions containing MSP-133 were pooled and dialysed extensively with PBS.
In addition to the fluorimetry, isothermal titration calorimetry (ITC) was performed using a Microcal omega VP-ITC (MicroCal Inc., Northampton, Mass.). The proteins were dialyzed extensively against the ITC buffer (phosphate buffered saline, pH 7.4). All experiments were performed at 25° C. The cell, 1.425 ml, contained 30 μM MSP142 or MSP133 and these were titrated by injection of a total of 290 μl of 600 μM suramin. The heat of dilution of suramin into buffer was determined in control experiments. The data were fitted by least-squares methods using the evaluation software, Microcal Origin version 5.0 provided by the manufacturer. Each experiment was performed twice.

MSP142 = MSP142 (Plasmodium falciparum, UniProt Q8I0U8); test: P. falciparum MSP1 secondary processing assay (merozoites, Western blot); assay type: biochemical; set-up: Merozoites were purified as described previously; endogenous in cells; host or cells: purified P. falciparum merozoites released from mature schizonts
Description: Merozoites were purified as described previously (Blackman 1994 Methods Cell Biol. 45, 213-220) after release from mature schizonts into growth medium supplemented with 2 mM EGTA. Merozoites were harvested by centrifugation, followed by sequential passage through pre-wetted filters of 3 and 1.2 μm pore size. Merozoites were washed in Ca^2+- and Mg^2+-free PBS in the presence of protease inhibitors (leupeptin, antipain and aprotinin at 10 μg ml^−1). The merozoites were then washed and resuspended in 50 mM Tris-HCl pH 7.2, 5 mM CaCl2, 1 mM MgCl2, plus leupeptin, antipain and aprotinin at 10 μg ml^−1 (processing buffer), and divided into 18 μl aliquots. Two microlitres of either diluted compound or reaction buffer were added and the samples incubated for 1 h at 37° C. Control assays included those in which processing was prevented by immediate addition of either SDS, 1 mM PMSF or 5 mM EGTA; and those in the absence of compound or in the presence of 0.2 mM TLCK (tosyl-L-lysyl chloromethyl ketone). After 1 h the reaction was stopped, and MSP1 processing was analysed using a Western blot-based assay (Blackman 1994 Methods Cell Biol. 45, 213-220). The blots were probed with a rabbit anti-MSP133/MSP142 antibody and the bands corresponding to MSP142 and MSP133 polypeptides were visualised by enhanced chemiluminescence.
Purified merozoites were incubated in the presence or absence of suramin or NTS and polypeptides subjected to SDS-PAGE and Western blotting.

Cc1ccc(C(=O)Nc2ccc(S(=O)(=O)O)c3cc(S(=O)(=O)O)cc(S(=O)(=O)O)c23)cc1NC(=O)c1cccc(NC(=O)Nc2cccc(C(=O)Nc3cc(C(=O)Nc4ccc(S(=O)(=O)O)c5cc(S(=O)(=O)O)cc(S(=O)(=O)O)c45)ccc3C)c2)c1 [suramin]
Kd (P. vivax MSP133): 1.5 ± 0.5 µM
binding to MSP133 weaker than to MSP142 (P. vivax MSP133; ITC): 5 fold
AH value (P. vivax MSP133; ITC, 25° C.): 12 ± 1 kcal/mol
inhibition of MSP142 secondary processing (MSP142; 200 μM, 1 h at 37° C.): absence of MSP133
dose dependence of inhibition of MSP142 processing (FIG. 3B) (MSP142; 1.25-200 μM suramin): dose-dependent
